Experimental data as given in patent US5972955A, “Water soluble C-ring analogues of 20(S)-camptothecin” (Dr. Reddy's Research Foundation, priority 1996, dated 1999).

System: Human Serum Albumin
Assay: not given
Conditions: in the presence of HSA at 37° C.; cited from earlier work

| Compound | percentage (%) of lactone form at equilibrium (in words) |
| --- | --- |
| CCc1c2c(nc3ccc(OC(=O)N4CCC(N5CCCCC5)CC4)cc13)-c1cc3c(c(=O)n1C2)COC(=O)[C@]3(O)CC [CPT-11] | a higher percentage (%) of lactone form at equilibrium than 20(S) camptothecin of the formula 2 and 9-aminocamptothecin of the formula 5 |
| CCc1c2c(nc3ccc(O)cc13)-c1cc3c(c(=O)n1C2)COC(=O)[C@]3(O)CC [SN-38, 7-ethyl-10-hydroxycamptothecin] | a higher percentage (%) of lactone form at equilibrium than 20(S) camptothecin of the formula 2 and 9-aminocamptothecin of the formula 5 |
| CC[C@@]1(O)C(=O)OCc2c1cc1n(c2=O)Cc2cc3c(CN(C)C)c(O)ccc3nc2-1 [Topotecan] | a higher percentage (%) of lactone form at equilibrium than 20(S) camptothecin of the formula 2 and 9-aminocamptothecin of the formula 5 |

System: not given
Assay: not given
Conditions: compared with 20(RS)-camptothecin; cited from earlier work

| Compound | in vivo antitumor activity (in words) |
| --- | --- |
| CCc1c2c(nc3ccc(OC)cc13)-c1cc3c(c(=O)n1C2)COC(=O)[C@]3(N)CC [formula 6] | increased in vivo antitumor activity than 20(RS)-camptothecin |

System: NCI's 60 human tumor cell line assay
Assay: NCI 60 human tumor cell line assay, mean growth inhibition (Table 1)
Type: cell-based
Conditions: read-out: IC50 = the mean value of the minimum drug concentration of the agent required to produce 50% cell growth inhibition (GI50); mean over NCI's 60 human tumor cell lines; 48 h; Sulforhodamine B
Description: Inoculates were allowed a preincubation period of 24 h at 37° C. for stabilization.
^a IC50 = the mean value of the minimum drug concentration (μm) of
NCI's 60 human tumor cell line assay.

| Compound | IC50 [µM] |
| --- | --- |
| CC[C@@]1(O)C(=O)OCc2c1cc1n(c2=O)C(NCc2ccccc2)c2cc3ccccc3nc2-1 (stereo partly drawn) [Example 5, 5-Benzylaminocamptothecin] | > 30 |
| CC[C@@]1(O)C(=O)OCc2c1cc1n(c2=O)C(NCCO)c2cc3ccccc3nc2-1 (stereo partly drawn) [Example 2, 5-(2'-hydroxyethylamino)camptothecin] | > 30 |
